ChEMBL document CHEMBL3885881, “DrugMatrix”

Species on record: Rattus norvegicus
Assay: DrugMatrix - Regimen: Daily Repeat
Type: toxicity, organism-based, Sprague-Dawley
Set-up: regimen Daily Repeat, gender Male, age 6-8 weeks
Details: in vivo, po, route oral GAVAGE, vehicle 100 % WATER; for ABSOLUTE BASOPHIL / ABSOLUTE EOSINOPHIL / ABSOLUTE LYMPHOCYTE / ABSOLUTE MONOCYTE / ABSOLUTE SEGMENTED NEUTROPHIL / BASOPHIL / EOSINOPHIL / ERYTHROCYTE COUNT / HEMATOCRIT / HEMOGLOBIN / LEUKOCYTE COUNT / LYMPHOCYTE / MEAN CORPUSCULAR HEMOGLOBIN / MEAN CORPUSCULAR HEMOGLOBIN CONCENTRATION / MEAN CORPUSCULAR VOLUME / MONOCYTE / NEUTROPHIL / NUCLEATED RED BLOOD CELLS / PLATELET COUNT: tissue Blood; for ALANINE AMINOTRANSFERASE / ALBUMIN / ALKALINE PHOSPHATASE / ASPARTATE AMINOTRANSFERASE / BLOOD UREA NITROGEN / CARBON DIOXIDE / CHLORIDE / CHOLESTEROL / CREATINE PHOSPHOKINASE / CREATININE / GLUCOSE / LACTATE DEHYDROGENASE / LIPASE / PHOSPHORUS / POTASSIUM / SODIUM / TOTAL BILIRUBIN / TOTAL PROTEIN / URIC ACID: tissue Plasma
[1] = 25 mg/kg, 120 h, dose level High, time 5 day
[2] = […], 72 h, dose 6.3 mg/Kg, dose level Low, time 3 day
[3] = […], 120 h, dose 6.3 mg/Kg, dose level Low, time 5 day

Which results are given for `O=P1(N(CCCl)CCCl)NCCCO1` (centres undefined) [CYCLOPHOSPHAMIDE ANHYDROUS]?
ABSOLUTE BASOPHIL [1]: 0 CELLS/uL; ABSOLUTE EOSINOPHIL [1]: 0 CELLS/uL; ABSOLUTE LYMPHOCYTE [1]: 1111.67 CELLS/uL; ABSOLUTE MONOCYTE [1]: 4.33 CELLS/uL; ABSOLUTE SEGMENTED NEUTROPHIL [1]: 117.33 CELLS/uL; BASOPHIL [1]: 0%; EOSINOPHIL [1]: 0%; ERYTHROCYTE COUNT [1]: 4.84 x10E6/uL; HEMATOCRIT [1]: 29.43%; HEMOGLOBIN [1]: 11.47 G/DL; LEUKOCYTE COUNT [1]: 1.23 x10E3/uL; LYMPHOCYTE [1]: 90.33%; MEAN CORPUSCULAR HEMOGLOBIN [1]: 23.77 pg; MEAN CORPUSCULAR HEMOGLOBIN CONCENTRATION [1]: 39 G/DL; MEAN CORPUSCULAR VOLUME [1]: 60.93 fL; MONOCYTE [1]: 0.33%; NEUTROPHIL [1]: 9.33%; NUCLEATED RED BLOOD CELLS [1]: 0 /100WBC; PLATELET COUNT [1]: 645 x10E3/uL; ALANINE AMINOTRANSFERASE [1]: 44.33 u/L; ALBUMIN [1]: 3.8 G/DL; ALKALINE PHOSPHATASE [1]: 227.67 u/L; ASPARTATE AMINOTRANSFERASE [1]: 67.33 u/L; BLOOD UREA NITROGEN [1]: 15.33 mg/dL; CARBON DIOXIDE [1]: 31 mmol/L; CHLORIDE [1]: 102.33 MEQ/L; CHOLESTEROL [1]: 78.67 mg/dL; CREATINE PHOSPHOKINASE [1]: 231 u/L; CREATININE [1]: 0.16 mg/dL; GLUCOSE [1]: 147.67 mg/dL; LACTATE DEHYDROGENASE [1]: 83.33 u/L; LIPASE [1]: 8.33 u/L; PHOSPHORUS [1]: 9.97 mg/dL; POTASSIUM [1]: 5.36 MEQ/L; SODIUM [1]: 144.37 MEQ/L; TOTAL BILIRUBIN [1]: 0.1 mg/dL; TOTAL PROTEIN [1]: 5.37 G/DL; URIC ACID [1]: 0.33 mg/dL; ABSOLUTE BASOPHIL [2]: 0 CELLS/uL; ABSOLUTE EOSINOPHIL [2]: 0 CELLS/uL; ABSOLUTE LYMPHOCYTE [2]: 7172.67 CELLS/uL; ABSOLUTE MONOCYTE [2]: 29.33 CELLS/uL; ABSOLUTE SEGMENTED NEUTROPHIL [2]: 531.33 CELLS/uL; BASOPHIL [2]: 0%; EOSINOPHIL [2]: 0%; ERYTHROCYTE COUNT [2]: 5.43 x10E6/uL; HEMATOCRIT [2]: 33.63%; HEMOGLOBIN [2]: 13.3 G/DL; LEUKOCYTE COUNT [2]: 7.73 x10E3/uL; LYMPHOCYTE [2]: 92.67%; MEAN CORPUSCULAR HEMOGLOBIN [2]: 24.53 pg; MEAN CORPUSCULAR HEMOGLOBIN CONCENTRATION [2]: 39.53 G/DL; MEAN CORPUSCULAR VOLUME [2]: 62.03 fL; MONOCYTE [2]: 0.33%; NEUTROPHIL [2]: 7%; NUCLEATED RED BLOOD CELLS [2]: 0 /100WBC; PLATELET COUNT [2]: 1008 x10E3/uL; ALANINE AMINOTRANSFERASE [2]: 63.67 u/L; ALBUMIN [2]: 4.1 G/DL; ALKALINE PHOSPHATASE [2]: 374 u/L; ASPARTATE AMINOTRANSFERASE [2]: 82.67 u/L; BLOOD UREA NITROGEN [2]: 14 mg/dL; CARBON DIOXIDE [2]: 34.33 mmol/L; CHLORIDE [2]: 99.5 MEQ/L; CHOLESTEROL [2]: 93.33 mg/dL; CREATINE PHOSPHOKINASE [2]: 214.67 u/L; CREATININE [2]: 0.13 mg/dL; GLUCOSE [2]: 141.67 mg/dL; LACTATE DEHYDROGENASE [2]: 136 u/L; LIPASE [2]: 12.67 u/L; PHOSPHORUS [2]: 11.2 mg/dL; POTASSIUM [2]: 5.83 MEQ/L; SODIUM [2]: 145.15 MEQ/L; TOTAL BILIRUBIN [2]: 0.23 mg/dL; TOTAL PROTEIN [2]: 5.9 G/DL; URIC ACID [2]: 0.6 mg/dL; ABSOLUTE BASOPHIL [3]: 0 CELLS/uL; ABSOLUTE EOSINOPHIL [3]: 11 CELLS/uL; ABSOLUTE LYMPHOCYTE [3]: 3359 CELLS/uL; ABSOLUTE MONOCYTE [3]: 20 CELLS/uL; ABSOLUTE SEGMENTED NEUTROPHIL [3]: 610 CELLS/uL; BASOPHIL [3]: 0%; EOSINOPHIL [3]: 0.33%; ERYTHROCYTE COUNT [3]: 5.53 x10E6/uL; HEMATOCRIT [3]: 34.97%; HEMOGLOBIN [3]: 13.43 G/DL; LEUKOCYTE COUNT [3]: 4 x10E3/uL; LYMPHOCYTE [3]: 84%; MEAN CORPUSCULAR HEMOGLOBIN [3]: 24.37 pg; MEAN CORPUSCULAR HEMOGLOBIN CONCENTRATION [3]: 38.43 G/DL; MEAN CORPUSCULAR VOLUME [3]: 63.33 fL; MONOCYTE [3]: 0.67%; NEUTROPHIL [3]: 15%; NUCLEATED RED BLOOD CELLS [3]: 0 /100WBC; PLATELET COUNT [3]: 1266.67 x10E3/uL; ALANINE AMINOTRANSFERASE [3]: 56.33 u/L; ALBUMIN [3]: 4.03 G/DL; ALKALINE PHOSPHATASE [3]: 346.33 u/L; ASPARTATE AMINOTRANSFERASE [3]: 83.33 u/L; BLOOD UREA NITROGEN [3]: 14 mg/dL; CARBON DIOXIDE [3]: 31.33 mmol/L; CHLORIDE [3]: 99.5 MEQ/L; CHOLESTEROL [3]: 65.67 mg/dL; CREATINE PHOSPHOKINASE [3]: 216.33 u/L; CREATININE [3]: 0.2 mg/dL; GLUCOSE [3]: 137.33 mg/dL; LACTATE DEHYDROGENASE [3]: 136 u/L; LIPASE [3]: 10.33 u/L; PHOSPHORUS [3]: 10.6 mg/dL; POTASSIUM [3]: 5.74 MEQ/L; SODIUM [3]: 145.9 MEQ/L; TOTAL BILIRUBIN [3]: 0.17 mg/dL; TOTAL PROTEIN [3]: 5.9 G/DL; URIC ACID [3]: 0.53 mg/dL
